Test results as given in patent US9199978B2, “Acrylamide compounds and use thereof for inhibiting apoptosis” (CHINESE PLA GENERAL HOSPITAL, priority 2010, dated 2015).

Key:
Assay type in all cases: cell-based, Wistar sucking mice
[1] = test system: cardiomyocyte apoptosis induced by anoxia; test: Protection against anoxia-induced cardiomyocyte apoptosis (HCS fluorescence staining); conditions: for Nucleus area (%): Hoechst staining; for Mitochondrial transmembrane potential: MitoTracker Red
Protocol: (§1) The isolation and culture of cardiomyocytes were performed by referring to the differential adhesion method (Kreider, A. Messing, H. Doan, S. U. Kim, R. P. Lisak and D. E. Pleasure, Enrichment of Schwann cell cultures from neonatal rat sciatic nerve by differential adhesion, Brain Res 2 (1981), pp. 433-444). Wistar sucking mice newborn within 24 h were used, sterilized at skin of ventrum with iodine tincture and ethanol, subjected to thoracotomy using scissors at subxiphoid median line with a deviation to left, heart was taken out after slant thoracotomy and placed in PBS precooled with ice; the heart was softly blown and beaten with 0.01 M PBS to remove blood cells and other tissues, then cut into pieces with 0.5 mm^3 size, washed with 0.01 M PBS repeatedly for 2-3 times; the pieces were placed in conical flask, added with 4 ml of 0.125% pancretin, 1 ml of 0.1% collagenase II (final concentrations separately being 0.1% and 0.02%), shaken in 37° C. water bath for 10 min, the supernatant was discarded; then 4 ml of 0.125% pancretin and 1 ml of 0.1% collagenase II again, shaken in 37° C. water bath for digestion for 10 min, the supernatant was sucked and transferred to a centrifuge tube, and the supernatant was added with DMEM containing 10% FBS to terminate digestion; the step of shaking and digestion in water bath was repeated for 3-4 times, until the tissue pieces were completely digested; the collected cell suspension was centrifuged under 1000 rpm for 10 min, the supernatant was removed, then a culture medium was added for resuspension; the resuspended cells were inoculated in a cell culture flask, placed in CO2 incubator at 37° C. for incubation for 1.5 h, then the culture medium was sucked out, countered under microscope, then DMEM culture medium containing 10% FBS was used to adjust cell density, inoculated in an amount of 1×10^4 to a 96-well plate, placed in 5% CO2 incubator at 37° C. for 24 h, then half medium was replaced, a culture medium containing 0.1% Brdu was supplementally added; then the medium was replaced once per 48 h, and primary cardiomyocytes were obtained after 4 days of cultivation.
Cardiomyocyte was obtained by primary culture according to Example 18, cell density 10^4/mL, each wall was added with 100 μL of suspension of the cells. The cells were incubated at 37° C., 5% CO2 environment for 96 h (replacing solution once per 48 h). After primary culture for 4 days, cell apoptosis was induced by placing in an anoxia incubator, the compounds of the present invention at different concentrations were added for pretreatment 30 min before inducing cell apoptosis, then placed in 37° C., 5% CO2-95% N2 incubator and cultured for 15.5 h. It was 30 min before the compound incubation finished, 50 μL of culture medium, 50 μL of Mitotracker/Hoechst solution, were added, and the cells were then continuously cultured at 37° C., 5% CO2-95% N2 for 30 min.
Each well was directly added with 100 μL of fixing solution, without sucking out the culture medium, incubated at room temperature in fume cupboard for 10 min. The pre-heated fixing solution was very important for keeping cell integrity.
The solution of each well was sucked out (the plate could be turned over), washed with 1× Wash Buffer (100 μL/well) once. Carefulness was kept during operation and washing procedure to maintain cell adhesion and integrity. Good results could be obtained by slowly sucking and releasing liquid. Wash Buffer was sucked out, 1× penetrating membrane solution (100 uL/well) was added, incubated at room temperature for 15 min. The penetrating membrane solution was sucked out, each well was washed once with 100 μL/well of 1× Wash Buffer. The Wash Buffer was sucked out, each well was added with 50 μL of Alexa Fluor 488 Phalloidin Solution, incubated at room temperature in dark for 30 min. The Alexa Fluor 488 Phalloidin solution was sucked out, washed with 1× Wash Buffer for three times, and the solution of the last time was kept in the well. […]

[2] = test system: cardiomyocytes; test: Measurement of cell inhibition rate (MTT) on normal primary cardiomyocytes; conditions: 48 h; for inhibition at 300 µM: Cardiomyocyte; for Inhibition rate (%) of cardiomyocytes: 300 μM
Protocol: as §1
The isolated primary culture of cardiomyocytes was inoculated in an amount of 10^4 cells per well to a 96-well plate, and the volume of each well was 100 μl (marginal wells were filled with sterile PBS). […] After continuous inoculation for 48 h, each well was added with 20 μl of MTT solution (5 mg/ml, formulated with PBS (pH=7.4), i.e., 0.5% MTT), and the cultivation was continued for 4 h. After the end of cultivation, culture medium in wells was carefully sucked out. Each well was added with 150 μl of DMSO, shaken at a low speed in a shaking table for 10 min, so that the crystal was sufficiently dissolved. The optical density (OD) value of each well was measured at wavelength of 550 nm by enzyme-linked immunoassay instrument, and each well was repeatedly measured for 5 times and the results were recorded.

[3] = test system: TG-induced cardiomyocytes apoptosis; test: Protection against TG-induced cardiomyocyte apoptosis (MTT)
Protocol: as §1
The isolated primary culture of cardiomyocytes was inoculated in an amount of 10^4 cells per well to a 96-well plate, and the volume of each well was 100 μl (marginal wells were filled with sterile PBS). After being cultivated in 5% CO2 and 37° C. incubator for 4 d, they were added with the compound of Formula I at different concentrations (0.3 μM, 1 μM, 3 μM, 10 μM, 30 μM, 100 μM), 3 double-wells were set for each concentration, at the same time, zero setting wells (culture medium, MTT, DMSO), and control wells (culture medium, DMSO) were also set. After continuous inoculation for 48 h, each well was added with 20 μl of MTT solution (5 mg/ml, formulated with PBS (pH=7.4), i.e., 0.5% MTT), and the cultivation was continued for 4 h. After the end of cultivation, culture medium in wells was carefully sucked out. Each well was added with 150 μl of DMSO, shaken at a low speed in a shaking table for 10 min, so that the crystal was sufficiently dissolved. The optical density (OD) value of each well was measured at wavelength of 550 nm by enzyme-linked immunoassay instrument, and each well was repeatedly measured for 5 times and the results were recorded.
Cardiomyocytes were subjected to the primary culture for 4 days according to the above method, and then added with thapsigargin (TG) to induce apoptosis. The compound of the present invention was added for pretreatment 30 min before inducing apoptosis. […] TG was formulated with DMSO, the mother liquid was of 4 mM; and the compound of the present invention was formulated with DMSO, and the mother liquid was of 150 mM. The cell survival rate was measured according to the above MTT method, so as to test the protection effects of the compound of the present invention on the TG-induced cardiomyocytes apoptosis, and the results are shown in Table 2. […]

[4] = compound 0.3 μM + TG 0.4 uM, pretreatment 30 min
[5] = compound 1 μM + TG 0.4 uM, pretreatment 30 min
[6] = compound 3 μM + TG 0.4 uM, pretreatment 30 min
[7] = compound 10 μM + TG 0.4 uM, pretreatment 30 min

Compound: O=C(/C=C/c1cccs1)NC(NC(=S)Nc1cccc2cccnc12)C(Cl)(Cl)Cl (stereo not drawn) [Example 1, (2E)-3-(2-thienyl)-N-[1-(8-quinolylamino)thioformylamino-2,2,2-trichloroethyl]-2-acrylamide]
- light flux ([1]; 10 μM): 1201.92 ± 29.95
- Nucleus area (%) ([1]; 10 μM): 112.61 ± 7.78%
- Mitochondrial transmembrane potential ([1]; 10 μM): 112.68 ± 1.46

Compound: COc1ccccc1NC(=S)NC(NC(=O)/C=C/c1cccs1)C(Cl)(Cl)Cl (stereo not drawn) [Example 4, (2E)-3-(2-thienyl)-N-[1-(2-methoxyanilino)thioformylamino-2,2,2-trichloroethyl]-2-acrylamide]
- inhibition at 300 µM [2]: 5.55 ± 2.29%

Compound: O=C(/C=C/c1cccs1)NC(NC(=S)NCc1ccccc1)C(Cl)(Cl)Cl (stereo not drawn) [Example 5, (2E)-3-(2-thienyl)-N-(1-benzylaminothioformylamino-2,2,2-trichloroethyl)-2-acrylamide]
- inhibition at 300 µM [2]: 0.76 ± 4.04%
- Survival rate (%) of Cardiomyocyte [3, 4]: 82 ± 4%
- Survival rate (%) of Cardiomyocyte [3, 5]: 76 ± 8%
- Survival rate (%) of Cardiomyocyte [3, 6]: 74 ± 9%
- light flux ([1]; 0.3 μM): 1331.12 ± 53.30
- Nucleus area (%) ([1]; 0.3 μM): 120.23 ± 5.49%
- Mitochondrial transmembrane potential ([1]; 0.3 μM): 117.76 ± 1.87

Compound: O=C(/C=C/c1cccs1)NC(NC(=S)NC1CCCCC1)C(Cl)(Cl)Cl (stereo not drawn) [Example 6, (2E)-3-(2-thienyl)-N-(1-cyclohexylaminothio formylamino-2,2,2-trichloroethyl)-2-acrylamide]
- inhibition at 300 µM [2]: 5.54 ± 3.61%
- Survival rate (%) of Cardiomyocyte [3, 5]: 76 ± 7%
- Survival rate (%) of Cardiomyocyte [3, 6]: 70 ± 6%
- Survival rate (%) of Cardiomyocyte [3, 7]: 78 ± 9%
- light flux ([1]; 1 μM): 1077.08 ± 55.63
- Nucleus area (%) ([1]; 1 μM): 100.00 ± 4.63%
- Mitochondrial transmembrane potential ([1]; 1 μM): 112.92 ± 0.82

Compound: CC(C)NC(=S)NC(NC(=O)/C=C/c1cccs1)C(Cl)(Cl)Cl (stereo not drawn) [Example 7, (2E)-3-(2-thienyl)-N-[1-isopropylaminothioformylamino-2,2,2-trichloroethyl]-2-acrylamide]
- inhibition at 300 µM [2]: 1.32 ± 3.42%
- Survival rate (%) of Cardiomyocyte [3, 5]: 69 ± 5%
- Survival rate (%) of Cardiomyocyte [3, 6]: 70 ± 8%
- Survival rate (%) of Cardiomyocyte [3, 7]: 77 ± 11%

Compound: O=C(/C=C/c1cccs1)NC(NC(=S)Nc1ccccc1F)C(Cl)(Cl)Cl (stereo not drawn) [Example 8, (2E)-3-(2-thienyl)-N-[1-(2-fluoroanilino)thioformylamino-2,2,2-trichloroethyl]-2-acrylamide]
- inhibition at 300 µM [2]: 6.82 ± 1.21%

Compound: CC(C)OCCCNC(=S)NC(NC(=O)/C=C/c1cccs1)C(Cl)(Cl)Cl (stereo not drawn) [Example 9, (2E)-3-(2-thienyl)-N-[1-(3-isopropoxypropylamino)thioformylamino-2,2,2-trichloroethyl]-2-acrylamide]
- inhibition at 300 µM [2]: 5.3 ± 0.95%

Compound: COC(=O)c1ccccc1NC(=S)NC(NC(=O)/C=C/c1cccs1)C(Cl)(Cl)Cl (stereo not drawn) [Example 10, (2E)-3-(2-thienyl)-N-[1-(2-methoxyformylanilino)thioformylamino-2,2,2-trichloroethyl]-2-acrylamide]
- inhibition at 300 µM [2]: 3.24 ± 1.7%

Compound: O=C(/C=C/c1cccs1)NC(NC(=S)NC1CCCCCC1)C(Cl)(Cl)Cl (stereo not drawn) [Example 11, (2E)-3-(2-thienyl)-N-(1-cycloheptylaminothioformylamino-2,2,2-trichloroethyl)-2-acrylamide]
- inhibition at 300 µM [2]: 7.62 ± 5.77%

Compound: CS/C(=N\C(NC(=O)/C=C/c1cccs1)C(Cl)(Cl)Cl)Nc1cccc2cccnc12 (stereo not drawn) [Example 14, (2E)-3-(2-thienyl)-N-[1-(8-quinolylamino)methylthiomethenylamino-2,2,2-trichloroethyl]-2-acrylamide]
- inhibition at 300 µM [2]: 8.34 ± 5.78%

Compound: C/C=C(/C)C(=O)O[C@H]1C(C)=C2[C@H]([C@@H]1OC(=O)CCCCCCC)[C@@](C)(OC(C)=O)C[C@H](OC(=O)CCC)[C@@]1(O)[C@H]2OC(=O)[C@@]1(C)O [TG, thapsigargin, reference compound]
- Survival rate (%) of Cardiomyocyte ([3]; TG alone 0.4 uM (apoptosis inducer)): 59 ± 1.1%

Compound: (2E)-3-(2-thienyl)-N-[1-(1-morpholinyl)thioformyl amino-2,2,2-trichloroethyl]-2-acrylamide [Example 12]
- Inhibition rate (%) of cardiomyocytes [2]: 10.44 ± 5.66%
- Survival rate (%) of Cardiomyocyte [3, 4]: 79 ± 7%
- Survival rate (%) of Cardiomyocyte [3, 5]: 80 ± 9%
- Survival rate (%) of Cardiomyocyte [3, 6]: 83 ± 11%
- Nucleus area (%) ([1]; 10 μM): 102.93 ± 5.12%
- Mitochondrial transmembrane potential ([1]; 10 μM): 133.11 ± 6.30

Compound: (2E)-3-(2-thienyl)-N-[1-(4-methylpiperazinyl)thioformylamino-2,2,2-trichloroethyl]-2-acrylamide [Example 13]
- Inhibition rate (%) of cardiomyocytes [2]: 1.66 ± 2.70%
- Survival rate (%) of Cardiomyocyte [3, 4]: 72 ± 3%
- Survival rate (%) of Cardiomyocyte [3, 5]: 71 ± 3%
- Survival rate (%) of Cardiomyocyte [3, 6]: 67 ± 3%
- Mitochondrial transmembrane potential ([1]; 3 μM): 116.41 ± 0.64
